Test results from patent publication US20240148821A1, “PHARMACEUTICAL USE OF CYCLIC PEPTIDE COMPOUND” (CHUGAI SEIYAKU KABUSHIKI KAISHA, priority 2021, published 2024).
Where two headings read alike, the source gives them in different places. Bridge positions count the residues as written; N and C are the ends. Square brackets hold non-standard residues; d marks the D form. Peptide text beside a SMILES is read from it. * marks the point of attachment. hPhe(3,5-F2-4-CF3) = N[C@@H](CCc1cc(F)c(C(F)(F)F)c(F)c1)C(=O)O; hPhe(3-Cl-4-CF3) = N[C@@H](CCc1ccc(C(F)(F)F)c(Cl)c1)C(=O)O; NEtPhe(4-Me) = CCN[C@@H](Cc1ccc(C)cc1)C(=O)O; NMeGly(cPent) = CN[C@H](C(=O)O)C1CCCC1; NMeCha = CN[C@@H](CC1CCCCC1)C(=O)O; NMeChg = CN[C@H](C(=O)O)C1CCCCC1; NMeD = CN[C@@H](CC(=O)O)C(=O)O; NMeL = CN[C@@H](CC(C)C)C(=O)O; NMeA = CN[C@@H](C)C(=O)O; Piperidide = C1CCN(*)CC1; Ac5c = NC1(C(=O)O)CCCC1; Aze = O=C(O)[C@@H]1CCN1; Sar = CNCC(=O)O

Columns and labels:
[1] = target: protein-protein interaction between Kras and SOS1 (biotin-tagged human Kras loaded with GDP, His-tagged human SOS1) (Homo sapiens (Human), UniProt P01116, G12D); test: Protein-protein interaction inhibition between Kras and SOS1 (KrasG12D-SOS PPI) using AlphaScreen; assay type: biochemical; settings: AlphaScreen; biotin-tagged human Kras loaded with GDP, His-tagged human SOS1; read-out: KRAS G12D-SOS PPI IC50;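 further: kras produced in E. coli, Ni-coupled donor beads and streptavidin acceptor beads, excitation 680 nm with emission detected at 520–620 nm via singlet oxygen transfer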
[2] = system: various cancer cell lines (Ras mutation or amplification); test: Measurement of cell growth inhibitory activity against various cancer cell lines (CellTiter-Glo); assay type: cell-based, human
Description: Various cancer cell lines used were purchased from commercial suppliers. […] The cell suspension and culture medium supplemented with serum were dispensed to a plate containing the test compounds at 40 μL (384 well plate) or 200 μL (96 well plate) per well and incubated in a carbon dioxide gas incubator. […] Six days or seven days after the start of cultivation, 20 μL of CellTiter-Glo (Promega) was added to each well and fluorescence was measured.

A549 (NSCLC) = test: In vivo antitumor activity, mouse xenograft model, A549; settings: 10 days
Description: (§1) Tumor growth inhibition rate (TGI %)=(1−TV/CV)×100

[3] = system: large bowel carcinoma cell line LoVo; settings: LoVo (Colon) xenograft, 10 mg/kg once daily, 10 days
Description: (§2) Each type of cell line was subcutaneously grafted into nude mice, which were randomized after tumor size reached 200 to 300 mm^3, and compound administration (once daily) was initiated (Day 0). The solvents used to dissolve the compounds were DMSO and Cremophor EL. […] From the tumor volume data on the last measurement day, the tumor growth inhibition rate (TGI %: Tumor Growth Inhibition %) was calculated using the following expressions.
(§3) tumor volume (mm^3):½×long diameter (mm)×short diameter (mm)×short diameter (mm)
(§4) amount of change in tumor volume (mm^3)=tumor volume after Day 0−tumor volume at Day 0 • TV: average value of amount of change in tumor volume in administered group • CV: average value of amount of change in tumor volume in non-administered group

[4] = system: large bowel carcinoma cell line LS 180; test: In vivo antitumor activity, mouse xenograft model, LS 180; settings: LS 180 (Colon) xenograft, 7 days
Description: as §1

[5] = system: pancreatic cancer cell line KP4; settings: KP4 (Pancreas) xenograft, 10 days
Description: as §2, §3, §4

[6] = system: pancreatic cancer cell line MIA PaCa-2; settings: MIA PaCa-2 (Pancreas) xenograft, 14 days
Description: as §2, §3, §4

[7] = system: gastric cancer cell line MKN-1 with an amplified copy number of the KRAS gene; settings: MKN1 (Stomach) xenograft, 10 days
Description: as §2, §3, §4

[8] = system: Human pancreatic cancer cell line AsPC-1 (G12D mutation Kras); test: AsPC-1 cell growth inhibition (AsPC-1 CGI); assay type: cell-based; settings: read-out: AsPC-1 cell growth inhibition, 50% growth inhibitory concentration (IC50 value); 96 hours, CellTiter-Glo, values classified in ranges
Description: Test compounds were serially dilated with dimethyl sulfoxide, and 200 nL was then dispensed to a U-bottom 96-well plate using Labcyte Echo. […] The cell suspension was dispensed to a. plate containing a test compound at 100 μL per well and incubated at 37° C. in a 5% carbon dioxide gas incubator. 96 hours later, 80 μL of CellTiter-Glo (Promega) was added to each well and fluorescence was measured.

[9] = system: non-small cell lung cancer cell line NC1-1441 with a KRAS mutation; test: In vivo antitumor activity, mouse xenograft model, NCI-H441; settings: NCI-H441 (NSCLC) xenograft, 14 days
Description: as §1

human NRAS G13D (human) = human NRAS G13D (human) (UniProt P01111); test: cell-based or functional assay
human KRAS G12V (human) = human KRAS G12V (human) (UniProt P01116); test: cell-based or functional assay
human KRAS G12C (human) = human KRAS G12C (human) (UniProt P01116); test: cell-based or functional assay
human KRAS G12S (human) = human KRAS G12S (human) (UniProt P01116); test: cell-based or functional assay
[10] = target: human KRAS, gene copy number amplified (human) (UniProt P01116); test: cell-based or functional assay
human KRAS G12D (human) = human KRAS G12D (human) (UniProt P01116); test: cell-based or functional assay
[11] = MIA PaCa-2, Pancreas, KRAS G12C

## CC[C@H](C)[C@@H]1NC(=O)[C@H](CC(C)C)N(C)C(=O)C[C@@H](C(=O)N2CCCCC2)N(C)C(=O)[C@H](C2CCCCC2)N(C)C(=O)C2(CCCC2)NC(=O)[C@@H]2CCCN2C(=O)[C@H](CCc2ccc(C(F)(F)F)c(Cl)c2)NC(=O)CN(C)C(=O)[C@H](CC2CCCCC2)N(C)C(=O)CN(C)C(=O)CN(C)C1=O [Compound 558, (3S,9S,18S,21S,25S,28S,34S)-3-[2-[3-chloro-4-(trifluoromethyl)phenyl]ethyl]-28-cyclohexyl-9-(cyclohexylmethyl)-21-isobutyl-7,10,13,16,22,26,29-heptamethyl-18-[(1S)-1-methylpropyl]-25-(piperidine-1-carbonyl)spiro[1,4,7,10,13,16,19,22,26,29,32-undecazabicyclo[32.3.0]heptatriacontane-31,1′-cyclopentane]-2,5,8,11,14,17,20,23,27,30,33-undecone] ([NMeL]I[Sar][Sar][NMeCha][Sar][hPhe(3-Cl-4-CF3)]P[Ac5c][NMeChg][NMeD]-Piperidide; lactam N-11)
[1]
  IC50: 1.8 nM
[2]; A4/Fuk, Non-Hodgkin lymphoma, KRAS Amp
  IC50: 5.83 nM
[2]; A549, NSCLC, KRAS G12S
  IC50: 7.98 nM
[2]; KURAMOCHI, Ovary, KRAS Amp
  IC50: 23.4 nM
[2]; LS 180, Colon, KRAS G12D
  IC50: 22.6 nM
[2]; [11]
  IC50: 18.7 nM
[2]; NCI-H441, NSCLC, KRAS G12V
  IC50: 31.6 nM
[2]; NCI-H929, Myeloma, NRAS G13D
  IC50: 55.7 nM
[2]; SNU-1, Stomach, KRAS G12D
  IC50: 29.8 nM
[2]; SW480, Colon, KRAS G12V
  IC50: 17.5 nM
A549 (NSCLC); 10 mg/kg once daily
  TGI (%): 46%
A549 (NSCLC); 15 mg/kg once daily
  TGI (%): 57%
A549 (NSCLC); 30 mg/kg once daily
  TGI (%): 106%

## CC[C@H](C)[C@@H]1NC(=O)[C@H](CC(C)C)N(C)C(=O)C[C@@H](C(=O)N(C)C)N(C)C(=O)[C@H](C2CCCC2)N(C)C(=O)C2(CCCC2)NC(=O)[C@@H]2CCCN2C(=O)[C@H](CCc2cc(F)c(C(F)(F)F)c(F)c2)NC(=O)CN(C)C(=O)[C@H](Cc2ccc(C)cc2)N(CC)C(=O)[C@@H]2CCN2C(=O)[C@H](C)N(C)C1=O [Compound 1217, (5S,8S,11S,15S,18S,23aS,29S,35S,37aS)-8-((S)-sec-butyl)-18-cyclopentyl-29-(3,5-difluoro-4-(trifluoromethyl)phenethyl)-36-ethyl-1l-isobutyl-N,N,5,6,12,16,19,33-octamethyl-35-(4-methylbenzyl)-4,7,10,13,17,20,23,28,31,34,37-undecaoxotetratriacontahydro-2H,4H-spiro[azeto[2,1-u]pyrrolo[2,1-i][1,4,7,10,13,16,19,22,25,28,31]undecaazacyclotetratriacontine-21,1′-cyclopentane]-15-carboxamide] ([NMeL]I[NMeA][Aze][NEtPhe(4-Me)][Sar][hPhe(3,5-F2-4-CF3)]P[Ac5c][NMeGly(cPent)][NMeD]-NMe2; lactam N-11)
[3]
  TGI (%): 85%
[4]; 3 mg/kg once daily
  TGI (%): 11%
[4]; 5 mg/kg once daily
  TGI (%): 38%
[4]; 10 mg/kg once daily
  TGI (%): 65%
[5]; 5 mg/kg once daily
  TGI (%): 65%
[5]; 10 mg/kg once daily
  TGI (%): 104%
[6]; 3 mg/kg once daily
  TGI (%): 16%
[6]; 5 mg/kg once daily
  TGI (%): 65%
[6]; 10 mg/kg once daily
  TGI (%): 149%
[7]; 5 mg/kg once daily
  TGI (%): 55%
[7]; 10 mg/kg once daily
  TGI (%): 205%
[8]
  IC50: ≤ 20 nM
[2]; A549, NSCLC, KRAS G12S
  IC50: 0.3 nM
[2]; AGS, Stomach, KRAS G12D
  IC50: 0.32 nM
[2]; AML-193, AML, NRAS G13V
  IC50: 11.8 nM
[2]; AsPC-1, Pancreas, KRAS G12D
  IC50: 0.87 nM
[2]; C-643, Thyroid, HRAS G13R
  IC50: 3.24 nM
[2]; CFPAC-1, Pancreas, KRAS G12V
  IC50: 17.3 nM
[2]; COR-L23, NSCLC, KRAS Amp (G12V)
  IC50: 2.85 nM
[2]; Calu-6, NSCLC, KRAS Q61K
  IC50: 43.7 nM
[2]; DLD-1, Colon, KRAS G13D
  IC50: 5.08 nM
[2]; DMS 53, SCLC, KRAS Amp
  IC50: 12.2 nM
[2]; FAMPAC, Pancreas, KRAS G12V
  IC50: 2.09 nM
[2]; HCC-44, NSCLC, KRAS G12C
  IC50: 0.55 nM
[2]; HCC-1171, NSCLC, KRAS G12C
  IC50: 4.86 nM
[2]; HCT-116, Colon, KRAS G13D
  IC50: 8.58 nM
[2]; HEC-50B, Endometrium, KRAS G12D
  IC50: 43.8 nM
[2]; HEC-151, Endometrium, NRAS G12D
  IC50: 2.42 nM
[2]; HLG-1, NSCLC, KRAS G12V
  IC50: 3.29 nM
[2]; HPAC, Pancreas, KRAS G12D
  IC50: 2.19 nM
[2]; HuG1-N, Stomach, KRAS Amp
  IC50: 3.74 nM
[2]; IPC-298, Skin, NRAS Q61L
  IC50: 23.5 nM
[2]; KE-39, Stomach, KRAS Amp
  IC50: 0.8 nM
[2]; KLE, Endometrium, KRAS Amp
  IC50: 170 nM
[2]; KMM-1, Myeloma, NRAS G13D
  IC50: 8.59 nM
[2]; KP4, Pancreas, KRAS G12D
  IC50: 3.3 nM
[2]; KURAMOCHI, Ovary, KRAS Amp
  IC50: 1.18 nM
[2]; LS 174T, Colon, KRAS G12D
  IC50: 4.31 nM
[2]; LS 180, Colon, KRAS G12D
  IC50: 0.83 nM
[2]; LS513, Colon, KRAS G12D
  IC50: 3.69 nM
[2]; LoVo, Colon, KRAS G13D
  IC50: 5.5 nM
[2]; [11]
  IC50: 1.45 nM
[2]; MKN-1, Stomach, KRAS Amp
  IC50: 1.77 nM
[2]; MOLT-4, ALL, NRAS G12C
  IC50: 175 nM
[2]; NCI-H23, NSCLC, KRAS G12C
  IC50: 3.92 nM
[2]; NCI-H358, NSCLC, KRAS G12C
  IC50: 1.55 nM
[2]; NCI-H441, NSCLC, KRAS G12V
  IC50: 1.12 nM
[2]; NCI-H460, NSCLC, KRAS Q61H
  IC50: 4.2 nM
[2]; NCI-H929, Myeloma, NRAS G13D
  IC50: 9.79 nM
[2]; NCI-H1373, NSCLC, KRAS G12C
  IC50: 2.33 nM
[2]; NCI-H1385, NSCLC, KRAS G12C
  IC50: 14.3 nM
[2]; NCI-H1792, NSCLC, KRAS G12C
  IC50: 0.86 nM
[2]; NCI-H1944, NSCLC, KRAS G13D
  IC50: 2.53 nM
[2]; NCI-H2009, NSCLC, KRAS G12A
  IC50: 2.35 nM
[2]; NCI-H2030, NSCLC, KRAS G12C
  IC50: 4.05 nM
[2]; NCI-H2122, NSCLC, KRAS G12C
  IC50: 0.8 nM
[2]; NOMO-1, AML, KRAS G13D
  IC50: 6.5 nM
[2]; PA-1, Ovary, NRAS G12D
  IC50: 2.38 nM
[2]; PANC-1, Pancreas, KRAS G12D
  IC50: 44.3 nM
[2]; RERF-LC-Ad2, NSCLC, KRAS G12V
  IC50: 5.2 nM
[2]; SK-CO-1, Colon, KRAS G12V
  IC50: 0.49 nM
[2]; SK-LU-1, NSCLC, KRAS G12D
  IC50: 26 nM
[2]; SK-MEL-30, Skin, NRAS Q61K
  IC50: 91.6 nM
[2]; SNU-1, Stomach, KRAS G12D
  IC50: 0.46 nM
[2]; SW403, Colon, KRAS G12V
  IC50: 4.1 nM
[2]; SW480, Colon, KRAS G12V
  IC50: 4.31 nM
[2]; T.T, Esophageal, KRAS Amp
  IC50: 5.68 nM
[2]; TYK-nu, Ovary, NRAS G12D, Q61K
  IC50: 1.14 nM
[2]; UM-UC-3, Bladder, KRAS G12C
  IC50: 2.11 nM
[9]; 3 mg/kg once daily
  TGI (%): 59%
[9]; 5 mg/kg once daily
  TGI (%): 92%
[9]; 10 mg/kg once daily
  TGI (%): 110%

## [NMeL]I[Sar][Sar][NMeCha][Sar][hPhe(3-Cl-4-CF3)]P[Ac5c][NMeChg]D-Piperidide (lactam N-11; not fully specified (residue 11)) [Compound 558]
Human NRAS G13D (human)
  IC50, cell growth inhibition (CellTiter-Glo), NCI-H929 (Myeloma): 55.7 nM
Human KRAS G12V (human)
  IC50, cell growth inhibition (CellTiter-Glo), NCI-H441 (NSCLC): 31.6 nM
  IC50, cell growth inhibition (CellTiter-Glo), SW480 (Colon): 17.5 nM
Human KRAS G12C (human)
  IC50, cell growth inhibition (CellTiter-Glo), MIA PaCa-2 (Pancreas): 18.7 nM
Human KRAS G12S (human)
  IC50, cell growth inhibition (CellTiter-Glo), A549 (NSCLC): 7.98 nM
[10]
  IC50, cell growth inhibition (CellTiter-Glo), A4/Fuk (Non-Hodgkin lymphoma), KRAS Amp: 5.83 nM
  IC50, cell growth inhibition (CellTiter-Glo), KURAMOCHI (Ovary), KRAS Amp: 23.4 nM
Human KRAS G12D (human)
  IC50, cell growth inhibition (CellTiter-Glo), LS 180 (Colon): 22.6 nM
  IC50, cell growth inhibition (CellTiter-Glo), SNU-1 (Stomach): 29.8 nM
